# Measurements taken from ChEMBL document CHEMBL5303304, “EUbOPEN Chemogenomics Library - IncuCyte” (2023).
# Assays:
# Format in all cases: toxicity, cell-based
# Fibroblast = assay: Incucyte cell viability with human fibroblast; details: 10 µM, compound concentration 10 uM
# HEK-293T = assay: Incucyte cell viability with HEK293T; details: human, 10 µM, compound concentration 10 uM
# U2OS = assay: Incucyte cell viability with U2OS; details: human, 10 µM, compound concentration 10 uM
# Also: unitless GR value; below 1 slowed growth and below 0 cell loss.
SMILES,"Growth Rate (Fibroblast; 6 h, replicate number 2)","Growth Rate (Fibroblast; 12 h, replicate number 2)","Growth Rate (Fibroblast; 18 h, replicate number 1)","Growth Rate (Fibroblast; 24 h, replicate number 2)","Growth Rate (HEK-293T; 6 h, replicate number 1)","Growth Rate (HEK-293T; 6 h, replicate number 2)","Growth Rate (HEK-293T; 12 h, replicate number 1)","Growth Rate (HEK-293T; 12 h, replicate number 2)","Growth Rate (HEK-293T; 18 h, replicate number 1)","Growth Rate (HEK-293T; 18 h, replicate number 2)","Growth Rate (HEK-293T; 24 h, replicate number 1)","Growth Rate (HEK-293T; 24 h, replicate number 2)","Growth Rate (U2OS; 0 h, replicate number 1)","Growth Rate (U2OS; 6 h, replicate number 2)","Growth Rate (U2OS; 12 h, replicate number 2)","Growth Rate (U2OS; 18 h, replicate number 2)","Growth Rate (U2OS; 24 h, replicate number 2)","Growth Rate (U2OS; 6 h, replicate number 1)","Growth Rate (Fibroblast; 6 h, replicate number 1)","Growth Rate (U2OS; 24 h, replicate number 1)",also measured
CC1(C)CCC[C@]2(C)[C@@H](C=O)C(C=O)=CC[C@@H]12 [POLYGODIAL],-1,0.42,-0.77,0.73,-0.32,0.55,0.22,0.7,0.52,0.81,0.8,0.87,0.45,0.73,0.57,0.76,0.88,–,–,–,"Growth Rate (Fibroblast; 18 h, replicate number 2): 0.83; Growth Rate (Fibroblast; 24 h, replicate number 1): 0.41; Growth Rate (U2OS; 0 h, replicate number 2): -0.79"
CC(C1CC2CCC1C2)n1c(S)nnc1-c1ccco1 (stereo unspecified),–,–,-0.08,–,0.59,0.46,0.81,0.63,0.69,0.74,0.75,0.81,–,0.22,0.67,0.78,0.89,0.78,–,–,"Growth Rate (Fibroblast; 12 h, replicate number 1): -1; Growth Rate (HEK-293T; 0 h, replicate number 2): 0.53; Growth Rate (U2OS; 12 h, replicate number 1): 0.97"
CNC1(C)C2CCC(C2)C1(C)C.Cl (stereo unspecified) [MECAMYLAMINE HYDROCHLORIDE],–,0.66,0.43,–,0.95,0.89,0.74,0.84,–,0.89,–,0.91,0.92,0.24,0.97,0.64,0.73,1,0.44,0.98,"Growth Rate (Fibroblast; 0 h, replicate number 1): 0.75; Growth Rate (Fibroblast; 0 h, replicate number 2): 0.92; Growth Rate (Fibroblast; 12 h, replicate number 1): -1; Growth Rate (U2OS; 0 h, replicate number 2): -0.76; Growth Rate (U2OS; 18 h, replicate number 1): 0.93"
CCOc1cc(CC(=O)N[C@@H](CC(C)C)c2ccccc2N2CCCCC2)ccc1C(=O)O [REPAGLINIDE],–,0.38,–,0.86,–,–,–,–,–,–,–,–,–,–,0.94,0.96,–,–,–,0.99,"Growth Rate (Fibroblast; 18 h, replicate number 2): 0.61; Growth Rate (HEK-293T; 0 h, replicate number 1): 0.91; Growth Rate (HEK-293T; 0 h, replicate number 2): 0.8"
CCn1c(=O)c2c(C)c(C(=O)N3CCC(O)CC3)sc2n(CCC(F)(F)F)c1=O,–,–,–,0.97,0.41,–,0.79,–,0.74,0.86,0.83,–,–,0.72,0.97,0.97,–,–,–,–,"Growth Rate (Fibroblast; 0 h, replicate number 2): 0.25; Growth Rate (HEK-293T; 0 h, replicate number 1): 0.93; Growth Rate (HEK-293T; 0 h, replicate number 2): 0.32"
COc1ccc(OC)c(-c2ccc(NC(=O)c3ccncc3F)cc2)c1,-0.75,0.93,-0.35,0.92,–,–,–,–,–,–,–,–,-0.54,0.63,0.84,0.87,0.91,0.57,–,0.87,"Growth Rate (Fibroblast; 0 h, replicate number 1): -0.06; Growth Rate (HEK-293T; 0 h, replicate number 1): -0.77; Growth Rate (U2OS; 0 h, replicate number 2): -0.01; Growth Rate (U2OS; 12 h, replicate number 1): 0.56; Growth Rate (U2OS; 18 h, replicate number 1): 0.74"
Cn1cc(-c2cnc3ccc4ccc(CS(=O)(=O)NCc5ccccn5)cc4c(=O)c3c2)cn1 [MK-8033],-0.01,–,–,–,0.24,0,0.39,0.34,0.56,0.63,0.71,0.78,–,0.76,0.75,–,–,0.9,0.98,0.81,"Growth Rate (Fibroblast; 0 h, replicate number 1): -1; Growth Rate (U2OS; 0 h, replicate number 2): 0.2; Growth Rate (U2OS; 18 h, replicate number 1): 0.88"
COc1cc2c(cc1CC=C(C)C)C(=O)C[C@@H](c1ccc(O)cc1)O2 [BAVACHININ A],0.81,–,–,–,–,0.97,–,0.94,–,0.89,–,0.92,-0.43,0.85,–,–,0.99,–,–,0.73,"Growth Rate (Fibroblast; 0 h, replicate number 2): -0.08; Growth Rate (Fibroblast; 24 h, replicate number 1): 0.99; Growth Rate (HEK-293T; 0 h, replicate number 1): -0.07; Growth Rate (HEK-293T; 0 h, replicate number 2): -0.67; Growth Rate (U2OS; 12 h, replicate number 1): 0.89; Growth Rate (U2OS; 18 h, replicate number 1): 0.89"
O=C(Nc1cc(-c2cn[nH]c2)ccc1N1CCOCC1)c1ccc(-c2ccc3ncccc3c2)o1,–,0.42,–,0.77,-0.44,-0.29,-0.07,-0.19,0.02,0.04,-0.01,0.06,–,–,0.75,–,0.4,–,-1,0.44,"Growth Rate (Fibroblast; 0 h, replicate number 1): -0.23; Growth Rate (Fibroblast; 18 h, replicate number 2): 0.64; Growth Rate (HEK-293T; 0 h, replicate number 1): 0.85; Growth Rate (HEK-293T; 0 h, replicate number 2): 0.49; Growth Rate (U2OS; 0 h, replicate number 2): -0.65; Growth Rate (U2OS; 18 h, replicate number 1): 0.39"
COP(=O)(CCC(N)C(=O)O)Oc1cccc(CC(=O)O)c1 (stereo unspecified),–,–,0.86,–,–,–,0.97,–,0.94,–,0.92,–,0.98,–,0.91,–,0.93,0.8,0.49,–,"Growth Rate (Fibroblast; 0 h, replicate number 1): -1; Growth Rate (Fibroblast; 0 h, replicate number 2): -0.57; Growth Rate (Fibroblast; 12 h, replicate number 1): 0.92; Growth Rate (Fibroblast; 24 h, replicate number 1): 0.74; Growth Rate (HEK-293T; 0 h, replicate number 1): 0.66"
O=C(O)C[C@H]1CC[C@H](c2ccc(NC(=O)c3nnc(Nc4ccc(F)c(F)c4)o3)cc2)CC1,0.97,–,–,0.99,0.74,–,0.69,–,0.76,–,0.86,–,–,0.7,0.72,0.93,0.96,–,–,–,"Growth Rate (HEK-293T; 0 h, replicate number 1): 0.29; Growth Rate (HEK-293T; 0 h, replicate number 2): -0.23"
Nc1ncnc2c1c(I)cn2[C@@H]1O[C@H](CO)[C@@H](O)[C@H]1O [IODOTUBERCIDIN],0.95,0.25,0.57,–,-0.1,-0.01,-0.22,-0.29,-0.21,-0.24,-0.1,-0.16,-0.27,0.34,-0.14,-0.04,-0.18,-0.39,0.18,-0.26,"Growth Rate (Fibroblast; 0 h, replicate number 2): 0.24; Growth Rate (Fibroblast; 12 h, replicate number 1): 0.39; Growth Rate (Fibroblast; 18 h, replicate number 2): 0.43; Growth Rate (Fibroblast; 24 h, replicate number 1): 0.53; Growth Rate (HEK-293T; 0 h, replicate number 1): -0.62; Growth Rate (U2OS; 12 h, replicate number 1): 0.15; Growth Rate (U2OS; 18 h, replicate number 1): -0.13"
COCCNc1cc(NC(=O)N2CCCc3cc(CN4CCN(C)CC4=O)c(C=O)nc32)ncc1C#N [FGF401],–,–,0.24,–,0.68,0.95,–,0.82,0.87,0.98,–,–,-0.62,–,–,–,–,0.86,0.08,0.98,"Growth Rate (Fibroblast; 0 h, replicate number 2): 0.95; Growth Rate (Fibroblast; 12 h, replicate number 1): -1; Growth Rate (Fibroblast; 24 h, replicate number 1): 0.74; Growth Rate (HEK-293T; 0 h, replicate number 2): 0.45; Growth Rate (U2OS; 12 h, replicate number 1): 0.86; Growth Rate (U2OS; 18 h, replicate number 1): 0.93"
Oc1cccc(Nc2ccnc3[nH]c4ccccc4c23)c1,-0.81,-0.25,–,0.3,-0.94,-0.96,-0.75,-0.62,-0.41,-0.28,-0.06,0,–,–,0.91,0.7,0.63,–,-0.78,0.73,"Growth Rate (Fibroblast; 0 h, replicate number 1): 0.68; Growth Rate (Fibroblast; 12 h, replicate number 1): -0.34; Growth Rate (Fibroblast; 18 h, replicate number 2): 0.18; Growth Rate (Fibroblast; 24 h, replicate number 1): 0.48; Growth Rate (U2OS; 18 h, replicate number 1): 0.69"
COc1ccc(CSc2nnc(-c3ccc4ncsc4c3)o2)cc1C(F)(F)F,0.49,0.64,0.68,0.84,–,0.47,–,0.75,–,0.76,0.95,0.76,-0.97,0.78,0.87,-0.67,0.95,-0.59,0.92,–,"Growth Rate (Fibroblast; 0 h, replicate number 1): -1; Growth Rate (Fibroblast; 12 h, replicate number 1): 0.88; Growth Rate (Fibroblast; 18 h, replicate number 2): 0.71; Growth Rate (Fibroblast; 24 h, replicate number 1): 0.64; Growth Rate (U2OS; 0 h, replicate number 2): 0.81"
